Measured values reported in article PMC11277489, “Novel Piperazine Derivatives of Vindoline as Anticancer Agents” (International Journal of Molecular Sciences, 2024).

Assays:
[1] = tested on: MDA-MB-435; assay: NCI60 one-dose screen (10 μM), Melanoma; format: cell-based; details: Homo sapiens, MDA-MB-435, read-out: Growth percent rate
[2] = tested on: 60 human tumor cell lines (NCI60); assay: NCI60 one-dose screen (10 μM), whole panel; format: cell-based; details: for activity at 10 µM: Homo sapiens, read-out: Growth percent rate, Mean
[3] = tested on: K-562; assay: NCI60 one-dose screen (10 μM), Leukemia; format: cell-based; details: Homo sapiens, K562, read-out: Growth percent rate
[4] = tested on: SK-MEL-5; assay: NCI60 one-dose screen (10 μM), Melanoma; format: cell-based, human; details: Homo sapiens, SK-MEL-5, read-out: Growth percent rate
[5] = tested on: NCI-H322M; assay: NCI60 one-dose screen (10 μM), Non-small Cell Lung Cancer; format: cell-based; details: Homo sapiens, read-out: Growth percent rate
[6] = tested on: SNB-75; assay: NCI60 one-dose screen (10 μM), CNS Cancer; format: cell-based, human; details: Homo sapiens, SNB-75, read-out: Growth percent rate
[7] = tested on: SK-MEL-28; assay: NCI60 one-dose screen (10 μM), Melanoma; format: cell-based; details: Homo sapiens, SK-MEL-28, read-out: Growth percent rate
[8] = tested on: U251; assay: NCI60 one-dose screen (10 μM), CNS Cancer; format: cell-based; details: Homo sapiens, U-251, read-out: Growth percent rate
[9] = tested on: IGROV1; assay: NCI60 one-dose screen (10 μM), Ovarian Cancer; format: cell-based; details: Homo sapiens, IGROV-1, read-out: Growth percent rate
[10] = tested on: SF-295; assay: NCI60 one-dose screen (10 μM), CNS Cancer; format: cell-based; details: Homo sapiens, SF-295, read-out: Growth percent rate
[11] = tested on: SW-620; assay: NCI60 one-dose screen (10 μM), Colon Cancer; format: cell-based; details: Homo sapiens, SW-620, read-out: Growth percent rate
[12] = tested on: CCRF-CEM; assay: NCI60 one-dose screen (10 μM), Leukemia; format: cell-based; details: Homo sapiens, read-out: Growth percent rate
[13] = tested on: 786–0; assay: NCI60 one-dose screen (10 μM), Renal Cancer; format: cell-based; details: Homo sapiens, 786-0, read-out: Growth percent rate
[14] = tested on: OVCAR-8; assay: NCI60 one-dose screen (10 μM), Ovarian Cancer; format: cell-based; details: Homo sapiens, OVCAR-8, read-out: Growth percent rate
[15] = tested on: NCI-H23; assay: NCI60 one-dose screen (10 μM), Non-small Cell Lung Cancer; format: cell-based; details: Homo sapiens, NCI-H23, read-out: Growth percent rate
[16] = tested on: RPMI-8226; assay: NCI60 one-dose screen (10 μM), Leukemia; format: cell-based; details: Homo sapiens, RPMI-8226, read-out: Growth percent rate
[17] = tested on: HL-60(TB); assay: NCI60 one-dose screen (10 μM), Leukemia; format: cell-based; details: Homo sapiens, HL-60, read-out: Growth percent rate
[18] = tested on: SNB-19; assay: NCI60 one-dose screen (10 μM), CNS Cancer; format: cell-based; details: Homo sapiens, SNB-19, read-out: Growth percent rate
[19] = tested on: NCI-H460; assay: NCI60 one-dose screen (10 μM), Non-small Cell Lung Cancer; format: cell-based; details: Homo sapiens, NCI-H460, read-out: Growth percent rate
[20] = tested on: KM12; assay: NCI60 one-dose screen (10 μM), Colon Cancer; format: cell-based, human; details: Homo sapiens, KM12, read-out: Growth percent rate
[21] = tested on: HOP-62; assay: NCI60 one-dose screen (10 μM), Non-small Cell Lung Cancer; format: cell-based; details: Homo sapiens, HOP-62, read-out: Growth percent rate
[22] = tested on: A549/ATCC; assay: as above; format: cell-based; details: Homo sapiens, A549, read-out: Growth percent rate
[23] = tested on: CAKI-1; assay: NCI60 one-dose screen (10 μM), Renal Cancer; format: cell-based; details: Homo sapiens, CAKI-1, read-out: Growth percent rate
[24] = tested on: HCT-15; assay: NCI60 one-dose screen (10 μM), Colon Cancer; format: cell-based; details: Homo sapiens, HCT-15, read-out: Growth percent rate
[25] = tested on: SF-539; assay: NCI60 one-dose screen (10 μM), CNS Cancer; format: cell-based, human; details: Homo sapiens, SF-539, read-out: Growth percent rate
[26] = tested on: MCF7; assay: NCI60 one-dose screen (10 μM), Breast Cancer; format: cell-based; details: Homo sapiens, MCF7, read-out: Growth percent rate
[27] = tested on: OVCAR-4; assay: NCI60 one-dose screen (10 μM), Ovarian Cancer; format: cell-based; details: Homo sapiens, OVCAR-4, read-out: Growth percent rate
[28] = tested on: SK-MEL-2; assay: NCI60 one-dose screen (10 μM), Melanoma; format: cell-based; details: Homo sapiens, SK-MEL-2, read-out: Growth percent rate
[29] = tested on: RXF 393; assay: NCI60 one-dose screen (10 μM), Renal Cancer; format: cell-based, human; details: Homo sapiens, RXF 393, read-out: Growth percent rate
[30] = tested on: TK-10; assay: NCI60 one-dose screen (10 μM), Renal Cancer; format: cell-based; details: Homo sapiens, TK-10, read-out: Growth percent rate
[31] = tested on: HT29; assay: NCI60 one-dose screen (10 μM), Colon Cancer; format: cell-based; details: Homo sapiens, HT-29, read-out: Growth percent rate
[32] = tested on: MOLT-4; assay: NCI60 one-dose screen (10 μM), Leukemia; format: cell-based, human; details: Homo sapiens, MOLT-4, read-out: Growth percent rate
[33] = tested on: DU-145; assay: NCI60 one-dose screen (10 μM), Prostate Cancer; format: cell-based; details: Homo sapiens, DU-145, read-out: Growth percent rate
[34] = tested on: M14; assay: NCI60 one-dose screen (10 μM), Melanoma; format: cell-based; details: Homo sapiens, M14, read-out: Growth percent rate
[35] = tested on: UACC-257; assay: NCI60 one-dose screen (10 μM), Melanoma; format: cell-based; details: Homo sapiens, UACC-257, read-out: Growth percent rate
[36] = tested on: SF-268; assay: NCI60 one-dose screen (10 μM), CNS Cancer; format: cell-based; details: Homo sapiens, SF-268, read-out: Growth percent rate
[37] = tested on: COLO 205; assay: NCI60 one-dose screen (10 μM), Colon Cancer; format: cell-based, human; details: Homo sapiens, COLO 205, read-out: Growth percent rate
[38] = tested on: ACHN; assay: NCI60 one-dose screen (10 μM), Renal Cancer; format: cell-based; details: Homo sapiens, read-out: Growth percent rate
[39] = tested on: LOX IMVI; assay: NCI60 one-dose screen (10 μM), Melanoma; format: cell-based, human; details: Homo sapiens, LOX IMVI, read-out: Growth percent rate
[40] = tested on: MALME-3M; assay: NCI60 one-dose screen (10 μM), Melanoma; format: cell-based; details: Homo sapiens, Malme-3M, read-out: Growth percent rate
[41] = tested on: A498; assay: NCI60 one-dose screen (10 μM), Renal Cancer; format: cell-based; details: Homo sapiens, A498, read-out: Growth percent rate

CCC12C=CCN3CCC4(c5cc(NC(=O)CN6CCN(Cc7ccc(F)cc7)CC6)c(OC)cc5N(C)C4C(O)(C(=O)OC)C1OC(C)=O)C32 (stereo not shown) [Compound 19]
activity at 10 µM [1]: 103%
activity at 10 µM [2]: 99.6%
activity at 10 µM [3]: 74%
activity at 10 µM [4]: 92.8%
activity at 10 µM [5]: 98.5%
activity at 10 µM [6]: 87.3%
activity at 10 µM [7]: 109%
activity at 10 µM [8]: 103%
activity at 10 µM [9]: 113%
activity at 10 µM [10]: 99.8%
activity at 10 µM [11]: 118%
activity at 10 µM [12]: 105%
activity at 10 µM [13]: 92.8%
activity at 10 µM [14]: 100%
activity at 10 µM [15]: 103%
activity at 10 µM [16]: 94.1%
activity at 10 µM [17]: 101%
activity at 10 µM [18]: 97.2%
activity at 10 µM [19]: 129%
activity at 10 µM [20]: 115%
activity at 10 µM [21]: 106%
activity at 10 µM [22]: 89%
activity at 10 µM [23]: 69.3%
activity at 10 µM [24]: 95%
activity at 10 µM [25]: 102%
activity at 10 µM [26]: 80%
activity at 10 µM [27]: 102%
activity at 10 µM [28]: 103%
activity at 10 µM [29]: 90.4%
activity at 10 µM [30]: 107%
activity at 10 µM [31]: 108%
activity at 10 µM [32]: 78%
activity at 10 µM [33]: 111%
activity at 10 µM [34]: 102%
activity at 10 µM [35]: 98.4%
activity at 10 µM [36]: 102%
activity at 10 µM [37]: 101%
activity at 10 µM [38]: 102%
activity at 10 µM [39]: 99.1%
activity at 10 µM [40]: 102%
activity at 10 µM [41]: 132%

CC[C@]12C=CCN3CC[C@@]4(c5ccc(OC)cc5N(C)[C@H]4[C@@](O)(C(=O)OC)[C@@H]1OC(=O)CCCN1CCN(C(c4ccc(F)cc4)c4ccc(F)cc4)CC1)[C@@H]32 [Compound 25]
activity at 10 µM [1]: -78.7%
growth rate ([2]; 10 μM one-dose, on almost all tested cancer types and cell lines, negative = lethality): < −60%
activity at 10 µM [2]: -79.9%
activity at 10 µM [3]: -1.7%
activity at 10 µM [4]: -99.6%
activity at 10 µM [5]: -71.7%
activity at 10 µM [6]: -86.4%
activity at 10 µM [7]: -96.5%
activity at 10 µM [8]: -79%
activity at 10 µM [9]: -77%
activity at 10 µM [10]: -91%
activity at 10 µM [11]: -78.5%
activity at 10 µM [12]: -29.5%
activity at 10 µM [13]: -96.4%
activity at 10 µM [14]: -69.3%
activity at 10 µM [15]: -92.7%
activity at 10 µM [16]: -50.1%
activity at 10 µM [17]: -56.2%
activity at 10 µM [18]: -93.6%
activity at 10 µM [19]: -70.4%
activity at 10 µM [20]: -96.9%
activity at 10 µM [21]: -77.2%
activity at 10 µM [22]: -65.4%
activity at 10 µM [23]: -86.2%
activity at 10 µM [24]: -96.6%
activity at 10 µM [25]: -98.5%
activity at 10 µM [26]: -88.2%
activity at 10 µM [27]: -41.5%
activity at 10 µM [28]: -89.5%
activity at 10 µM [29]: -94.5%
activity at 10 µM [30]: -90.4%
activity at 10 µM [31]: -83.9%
activity at 10 µM [32]: -31.9%
activity at 10 µM [33]: -94.4%
activity at 10 µM [34]: -94.8%
activity at 10 µM [35]: -78.2%
activity at 10 µM [36]: -81.9%
activity at 10 µM [37]: -78.5%
activity at 10 µM [38]: -69.4%
activity at 10 µM [39]: -98.8%
activity at 10 µM [40]: -91%
activity at 10 µM [41]: -97.2%

CC[C@]12C=CCN3CC[C@@]4(c5ccc(OC)cc5N(C)[C@H]4[C@@](O)(C(=O)OC)[C@@H]1OC(=O)CCC(=O)N1CCN(C(=O)c4ccco4)CC1)[C@@H]32 [Compound 32]
activity at 10 µM [1]: 98.2%
activity at 10 µM [2]: 97.2%
activity at 10 µM [3]: 102%
activity at 10 µM [4]: 83.8%
activity at 10 µM [5]: 114%
activity at 10 µM [6]: 109%
activity at 10 µM [7]: 67.6%
activity at 10 µM [8]: 97.4%
activity at 10 µM [9]: 126%
activity at 10 µM [10]: 95.2%
activity at 10 µM [11]: 117%
activity at 10 µM [12]: 86.8%
activity at 10 µM [13]: 104%
activity at 10 µM [14]: 100%
activity at 10 µM [15]: 101%
activity at 10 µM [16]: 99.4%
activity at 10 µM [17]: 90.9%
activity at 10 µM [18]: 91.2%
activity at 10 µM [19]: 107%
activity at 10 µM [20]: 100%
activity at 10 µM [21]: 96.2%
activity at 10 µM [22]: 95.2%
activity at 10 µM [23]: 78.4%
activity at 10 µM [24]: 100%
activity at 10 µM [25]: 98.8%
activity at 10 µM [26]: 91.5%
activity at 10 µM [27]: 98.1%
activity at 10 µM [28]: 96.8%
activity at 10 µM [29]: 102%
activity at 10 µM [30]: 103%
activity at 10 µM [31]: 102%
activity at 10 µM [32]: 85.8%
activity at 10 µM [33]: 116%
activity at 10 µM [34]: 88.3%
activity at 10 µM [35]: 61.7%
activity at 10 µM [36]: 92.2%
activity at 10 µM [37]: 45.8%
activity at 10 µM [38]: 103%
activity at 10 µM [39]: 97.8%
activity at 10 µM [40]: 82%
activity at 10 µM [41]: 117%
